{"source": "patent US20240173389A1", "about": "“Compositions and Methods For Reducing Immune Intolerance” (LAPIX THERAPEUTICS, INC., priority 2021, published 2024)", "tested_on": "RAW264.7 mouse monocyte macrophage cells", "assay": "SAR screen in RAW 264.7 cells with FVIII antigen, TGF-β ELISA (Example 5)", "format": "cell-based", "settings": "free compounds dosed in mM range", "excerpt": "RAW264.7 mouse monocyte macrophage cells were exposed to an increasing concentration of selected compounds in the presence of human plasma-derived FVIII as a model antigen protein. TNF-α and TGF-β production were monitored.\nAll molecules were formulated in RPMI media in aseptic conditions. The pH was adjusted to approximately 7.5 before dosing cells. 1,2-dimyristoyl-sn-glycero-3-phosphocholine (DM PC):PS liposomes were made at 70:30 molar ratio to make “PS” liposomes. The remaining liposomes were made by hydrating a DMPC lipid layer in PBS buffer containing a test compound to give a final molar ratio of 70:30 of DMPC:test compound.\nRAW 264.7 cells were prepared, cultured, and dosed. Cells were seeded at 4×10^5 cells/well. OPLS, OPLT and L-homocysteic acid (LHA) were dosed at 100, 85, 70, 60, 50, 30, 10, 3, 1, 0.3, 0.1, 0.03 and 0.01 mM, or at 100, 85, 70, 60, 50, 30, 10, 3 and 1 mM, as indicated. O-Benzyl-L-serine (OBLS), S-phenyl-L-cysteine (SPLC), S-benzyl-L-cysteine (SBLC) and OBLT were dosed at 100, 85, 70, 60, 50, 30, 10, 3, 1, 0.3, 0.1, 0.03, 0.01, 0.003 and 0.001 μM. Finally, 100 μl of 40 μg/ml of FVIII as a sample antigen was added to each cell. LPS and free protein were used as positive and baseline controls, respectively. TNF-α and TGF-β ELISA were conducted as per the manufacturer's instructions (R & D Systems).", "note": "Entries after “also recorded” stand apart in the source; their conditions may differ.", "data": [{"compound": "N[C@@H](Cc1ccc(OP(=O)(O)O)cc1)C(=O)O", "note": "[OPLT, O-phospho-L-tyrosine]", "values": [{"measurement": "TGF-β production versus OPLS", "value": "mimicked that of OPLS; also recorded: more potent inducers of TGF-β"}]}]}
